Experimental data from US7247621B2, “Antiviral phosphonate compounds and methods therefor” (Valeant Research & Development, priority 2002, dated 2007).

Columns and labels:
E. coli RNA polymerase = E. coli RNA polymerase (Escherichia coli, UniProt P0A8T7+P0A8V2); details: Savochkina et al. Mol. Biol. (Mosk) 1989; cited from earlier work
[1] = molecular target: HCV RNA dependent RNA polymerase (RdRp), NS5B (Hepatitis C virus genotype 1b, UniProt P26663); experiment: Incorporation of phosphonate ATP analogs into RNA product by HCV RdRp (gel, extension of [33P]GpC); type: biochemical; details: for extension of [33P]GpC by HCV RdRp (incorporation into RNA product): 1 mM nucleotide, 10 μM [33P]GpC, 10 μM 5′-AAAAAAAUGC-3′ template, 2.5 μM HCV RdRp, FIG. 8
Sequence of HCV RNA dependent RNA polymerase (RdRp), NS5B (P26663 2420-3010): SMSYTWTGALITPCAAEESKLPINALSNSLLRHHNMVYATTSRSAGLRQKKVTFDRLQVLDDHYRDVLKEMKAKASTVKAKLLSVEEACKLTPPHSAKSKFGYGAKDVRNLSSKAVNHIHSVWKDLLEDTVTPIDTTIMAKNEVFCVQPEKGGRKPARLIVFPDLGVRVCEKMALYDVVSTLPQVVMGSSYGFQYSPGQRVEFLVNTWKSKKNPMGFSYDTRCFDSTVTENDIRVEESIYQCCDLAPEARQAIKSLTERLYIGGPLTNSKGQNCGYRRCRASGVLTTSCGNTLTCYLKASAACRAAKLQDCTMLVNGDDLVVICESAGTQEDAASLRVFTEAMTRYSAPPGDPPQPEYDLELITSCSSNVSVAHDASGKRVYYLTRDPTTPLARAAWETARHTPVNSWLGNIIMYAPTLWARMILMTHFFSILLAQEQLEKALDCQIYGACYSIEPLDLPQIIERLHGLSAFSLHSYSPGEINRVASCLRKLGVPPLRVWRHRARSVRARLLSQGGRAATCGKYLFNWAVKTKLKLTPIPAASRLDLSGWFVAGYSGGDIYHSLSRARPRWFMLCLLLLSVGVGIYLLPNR
Procedure: Among other nucleotide analogs (data not shown), two exemplary phosphonate analogs of ATP, 5′-deoxy-5′-phosphonate (5′d-ATP) and 5′-deoxy-5′-methylene phosphonate (5′d-CH2-ATP), were tested for inhibition and/or incorporation into an RNA product by the HCV RNA dependent RNA polymerase (RdRp). The incorporation reactions included 1 mM of the phosphonate analog or ATP, 10 μM of [^33P]GpC, 10 μM of 5′-AAAAAAAUGC-3′, and 2.5 μM of HCV RdRp in a buffer that contained 50 mM Hepes, pH 7.3, 10 mM DTT, and 5 mM MgCl2. The RNA products were resolved on a 25% polyacrylamide-7M urea-TBE gel. […] The incorporation of 5′d-CH2-ATP is less efficient than that of ATP by 10-fold. To look for further elongation after incorporation of ATP or 5′d-CH2-ATP, the same experiment was performed in the presence of additional UTP (1 mM).
Exemplary results of such tests are depicted in the autoradiograph of FIG. 8 showing RNA products from incorporations of ATP and phosphonate analogs of ATP by HCV RdRp. Each reaction contained 2.5 μM of RdRp, 10 μM of [^33P]GpC, 10 μM template, and the following nucleotides (1 mM): lane 1, none; lane 2, ATP; lane 3,5′-deoxy-5′-phosphonate ATP; lane 4,5′-deoxy-5′-methylene phosphonate ATP; lane 5, ATP and UTP; lane 6,5′-deoxy-5′-phosphonate ATP and UTP; lane 7,5′-deoxy-5′-methylene phosphonate ATP and UTP. The reaction products were resolved on a 25% polyacrylamide-7 M urea-TBE gel and the gel was scanned on a PhosporImager.

Sequence of E. coli RNA polymerase (P0A8T7 whole entry): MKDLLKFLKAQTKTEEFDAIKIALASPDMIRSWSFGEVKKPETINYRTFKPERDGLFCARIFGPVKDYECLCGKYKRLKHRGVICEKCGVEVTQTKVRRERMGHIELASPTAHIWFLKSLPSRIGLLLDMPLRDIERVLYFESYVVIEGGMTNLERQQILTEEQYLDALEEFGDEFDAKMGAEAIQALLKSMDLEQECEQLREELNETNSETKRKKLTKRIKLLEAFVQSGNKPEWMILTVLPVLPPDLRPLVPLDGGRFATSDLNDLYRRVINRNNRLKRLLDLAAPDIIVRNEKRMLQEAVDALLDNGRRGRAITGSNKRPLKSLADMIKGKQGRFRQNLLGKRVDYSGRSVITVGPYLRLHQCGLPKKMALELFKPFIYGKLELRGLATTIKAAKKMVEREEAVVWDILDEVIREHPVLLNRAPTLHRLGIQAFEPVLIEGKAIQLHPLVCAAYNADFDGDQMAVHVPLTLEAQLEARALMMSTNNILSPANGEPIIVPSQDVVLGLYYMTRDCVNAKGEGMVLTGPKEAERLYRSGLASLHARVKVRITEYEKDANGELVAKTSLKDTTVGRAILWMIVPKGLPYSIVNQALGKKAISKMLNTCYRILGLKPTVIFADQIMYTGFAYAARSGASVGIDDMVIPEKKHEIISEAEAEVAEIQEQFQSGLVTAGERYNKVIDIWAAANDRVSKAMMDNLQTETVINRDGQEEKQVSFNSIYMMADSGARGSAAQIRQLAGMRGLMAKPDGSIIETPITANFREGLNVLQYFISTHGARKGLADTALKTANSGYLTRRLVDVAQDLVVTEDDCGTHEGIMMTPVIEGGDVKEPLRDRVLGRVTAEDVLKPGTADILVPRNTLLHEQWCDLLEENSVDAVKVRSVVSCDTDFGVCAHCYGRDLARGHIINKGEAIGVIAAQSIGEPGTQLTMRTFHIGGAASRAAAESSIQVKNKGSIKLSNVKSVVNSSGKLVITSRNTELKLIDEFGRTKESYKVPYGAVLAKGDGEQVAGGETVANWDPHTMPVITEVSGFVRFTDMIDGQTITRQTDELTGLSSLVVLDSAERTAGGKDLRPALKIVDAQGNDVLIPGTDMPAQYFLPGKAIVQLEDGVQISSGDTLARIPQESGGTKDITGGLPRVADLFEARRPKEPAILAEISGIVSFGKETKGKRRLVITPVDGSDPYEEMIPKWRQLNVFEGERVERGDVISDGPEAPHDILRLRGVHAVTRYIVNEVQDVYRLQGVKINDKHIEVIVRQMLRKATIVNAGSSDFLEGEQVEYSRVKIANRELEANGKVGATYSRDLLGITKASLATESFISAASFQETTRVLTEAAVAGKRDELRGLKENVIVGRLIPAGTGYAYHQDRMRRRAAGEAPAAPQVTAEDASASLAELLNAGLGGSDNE
Sequence of E. coli RNA polymerase (P0A8V2 whole entry): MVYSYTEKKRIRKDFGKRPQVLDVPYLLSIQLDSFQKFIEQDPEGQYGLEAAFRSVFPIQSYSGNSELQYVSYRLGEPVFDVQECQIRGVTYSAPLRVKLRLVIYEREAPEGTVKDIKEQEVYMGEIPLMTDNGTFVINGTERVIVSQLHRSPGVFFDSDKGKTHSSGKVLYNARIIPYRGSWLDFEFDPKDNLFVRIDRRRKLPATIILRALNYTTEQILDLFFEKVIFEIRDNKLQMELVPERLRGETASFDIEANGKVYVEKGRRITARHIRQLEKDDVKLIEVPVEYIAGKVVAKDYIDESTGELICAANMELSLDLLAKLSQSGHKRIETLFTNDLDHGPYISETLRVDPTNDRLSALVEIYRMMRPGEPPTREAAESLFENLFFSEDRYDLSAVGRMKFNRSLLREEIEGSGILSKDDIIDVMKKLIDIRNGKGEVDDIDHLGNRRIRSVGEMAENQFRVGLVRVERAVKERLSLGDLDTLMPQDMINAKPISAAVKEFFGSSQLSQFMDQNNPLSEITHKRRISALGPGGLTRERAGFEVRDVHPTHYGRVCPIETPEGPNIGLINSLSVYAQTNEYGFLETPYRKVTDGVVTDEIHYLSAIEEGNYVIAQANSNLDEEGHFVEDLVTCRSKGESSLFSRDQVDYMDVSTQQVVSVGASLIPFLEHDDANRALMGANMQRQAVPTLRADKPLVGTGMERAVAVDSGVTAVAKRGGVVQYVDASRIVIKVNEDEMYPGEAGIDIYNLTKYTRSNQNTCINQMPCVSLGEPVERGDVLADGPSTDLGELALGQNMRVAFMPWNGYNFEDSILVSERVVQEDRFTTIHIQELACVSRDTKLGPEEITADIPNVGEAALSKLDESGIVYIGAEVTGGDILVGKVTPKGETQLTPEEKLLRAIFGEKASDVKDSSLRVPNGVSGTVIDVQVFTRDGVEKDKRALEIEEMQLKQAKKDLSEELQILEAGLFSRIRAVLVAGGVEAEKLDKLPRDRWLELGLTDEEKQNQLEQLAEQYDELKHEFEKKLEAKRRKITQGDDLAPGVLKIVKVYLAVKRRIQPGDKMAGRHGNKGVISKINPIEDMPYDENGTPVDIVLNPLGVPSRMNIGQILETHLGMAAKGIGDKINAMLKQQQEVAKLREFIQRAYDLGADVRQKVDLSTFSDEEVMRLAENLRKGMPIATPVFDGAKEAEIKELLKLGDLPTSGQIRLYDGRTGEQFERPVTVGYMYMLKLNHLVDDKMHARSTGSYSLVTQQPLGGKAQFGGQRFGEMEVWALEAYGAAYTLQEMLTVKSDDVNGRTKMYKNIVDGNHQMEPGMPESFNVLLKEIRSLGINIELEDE
Sequence of E. coli RNA polymerase (P0A7Z4 whole entry, further chain): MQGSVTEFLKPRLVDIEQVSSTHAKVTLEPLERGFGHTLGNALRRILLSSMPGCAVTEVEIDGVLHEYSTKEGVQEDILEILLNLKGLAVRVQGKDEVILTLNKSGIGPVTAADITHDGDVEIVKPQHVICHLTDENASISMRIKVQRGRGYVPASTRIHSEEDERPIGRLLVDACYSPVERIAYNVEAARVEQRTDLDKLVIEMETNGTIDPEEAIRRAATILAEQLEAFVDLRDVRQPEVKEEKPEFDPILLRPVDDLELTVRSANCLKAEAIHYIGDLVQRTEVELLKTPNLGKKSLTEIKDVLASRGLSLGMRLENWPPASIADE
Sequence of E. coli RNA polymerase (P0A800 whole entry, further chain): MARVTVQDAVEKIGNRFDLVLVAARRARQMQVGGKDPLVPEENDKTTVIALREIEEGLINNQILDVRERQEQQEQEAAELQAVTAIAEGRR

O=c1ccn([C@@H]2O[C@@H](CP(=O)(O)OP(=O)(O)OP(=O)(O)O)[C@@H](O)[C@H]2O)c(=O)[nH]1 [Phosphonate (5-deoxy) UTP]
effect on RNA synthesis by E. coli RNA polymerase (E. coli RNA polymerase): pseudoterminator of RNA synthesis

Nc1ncnc2c1ncn2[C@@H]1O[C@H](COP(=O)(O)OP(=O)(O)OP(=O)(O)O)[C@@H](O)[C@H]1O [ATP]
extension of [33P]GpC by HCV RdRp (incorporation into RNA product) [1]: extension of [^33P]GpC by HCV RdRp was observed
further elongation by UTP after incorporation ([1]; same experiment with additional UTP (1 mM)): Elongation products by UTP were seen

Nc1ncnc2c1ncn2[C@@H]1O[C@H](CP(=O)(O)OP(=O)(O)OP(=O)(O)O)[C@@H](O)[C@H]1O [5′d-ATP]
extension of [33P]GpC by HCV RdRp (incorporation into RNA product) [1]: no extension
